In US8765776B2, “Antihypertensive pharmaceutical composition” (Boryung Pharmaceutical Co., Ltd., priority 2011, dated 2014):
Counter-ions that a name gives are not always drawn.

What was measured:
[1] = test system: spontaneously hypertensive rats (SHR); experiment: 4-week repeated oral administration antihypertensive test in spontaneously hypertensive rats (non-invasive tail-cuff CODA-6); format: in vivo, rat; details: 4 weeks; for Antihypertensive degree with consecutive 4-week administration of drugs, as compared to blood pressure prior to administration (Mean): n=8, F1 = Fimasartan potassium trihydrate 3 mg/kg, F2 = 10 mg/kg, L = Losartan potassium 10 mg/kg, V = Valsartan 10 mg/kg, A1 = Amlodipine besylate 0.5 mg/kg, A2 = 1.6 mg/kg
From the text: This study is intended to examine antihypertensive action of individual drugs. For this purpose, test drugs, i.e., Fimasartan potassium trihydrate, Losartan potassium salt, Valsartan, Amlodipine besylate, a combination of Fimasartan potassium trihydrate with Amlodipine besylate, a combination of Losartan potassium salt with Amlodipine besylate, and a combination of Valsartan with Amlodipine besylate were repeatedly and orally administered for 4 weeks to rats with essential hypertension. […] In this manner, the antihypertensive action was compared and evaluated between the individual drugs.
8-week old male spontaneously hypertensive rats (SHR), weighing 230 to 250 g, were purchased from Charles River Japan (CRJ). The animals were used in the test, after being subjected to an acclimation period until the animals were 18 to 19-week old (340 to 380 g) to reach a mean blood pressure of 160 to 170 mmHg. Animals with a good condition were selected by minute observation over the acclimation period prior to the test, and divided into individual test groups, each consisting of 8 animals (n=8). Only the selected animals, from which a rise in blood pressure was confirmed using a non-invasive blood pressure monitoring system (CODA-6), were assigned to the test group.
Low, medium and high doses of the drugs according to individual drugs were established in the preliminary test. […] All the doses referred to those used in the already performed test. Doses and drug-administered groups used in the final main test are as follows.
As an ARB compound, Losartan potassium salt, Valsartan and Fimasartan potassium trihydrate were respectively purchased and used from Zhejiang Huahai Pharmaceutical Co., Ltd. 10 mg/kg of Losartan potassium salt was taken as an L group, and 10 mg/kg of Valsartan was taken as a V group. With regard to Fimasartan potassium trihydrate, 3 mg/kg was taken as an F1 group, and 10 mg/kg was taken as an F2 group.
As a calcium channel blocker, Amlodipine besylate (home-made by the method described in U.S. Pat. No. 4,572,909) was used. 0.5 mg/kg of Amlodipine besylate was taken as an A 1 group, and a dose of 1.6 mg/kg was taken as an A2 group. The test materials and the comparative drugs were each suspended in 0.5% carboxymethylcellulose sodium salt (CMC—Na, Sigma) prior to using. As a control group, 0.5% CMC alone was administered.
{circumflex over (3)} Test Method • Administration: Upon carrying out the administration, the drug preparation was heated to a suitable temperature of 35° in a water bath, followed by forced oral administration of 5 mL/kg via a stomach sonde. • Measurement of blood pressure: Blood pressure of rats was measured as follows. Rats were restrained and placed in a heating device which was then heated to a temperature of about 40° (based on the temperature of 37° in a restraining cage) over 13 minutes, such that the tail blood vessels were engorged, and the blood pressure of rats was measured using CODA-6 equipment that monitors a blood pressure by means of the software of the main body through a pair of cuffs attached to the tail. The non-invasive blood pressure measuring method via CODA-6 (Kent Scientific Corporation) enables a long-term blood pressure measuring test that should involve repeated administration of test materials, which is not feasible with a direct blood pressure measuring method through arterial cannulation, such as conventionally used physiograph or power lab.
Changes in blood pressure were confirmed with focusing on changes in mean arterial pressure (MAP), and changes in diastolic and systolic blood pressure, heart rate, and body weight were used as references for other changes in the experimental results.

[2] = test system: patients with mild to moderate essential hypertension; details: Week 12 of drug administration, dose 60 mg to 120 mg; cited from earlier work

| SMILES | Antihypertensive degree with consecutive 4-week administration of drugs, as compared to blood pressure prior to administration (Mean) [1] [mmHg] | other results |
| --- | --- | --- |
| CCCCc1nc(C)c(CC(=S)N(C)C)c(=O)n1Cc1ccc(-c2ccccc2-c2nnn[nH]2)cc1 [Comparative Example 1, Fimasartan potassium trihydrate] | – | Antihypertensive effect compared to Comparative Example 3 and Comparative Example 4 ([1]; 3 mg/kg Fimasartan potassium trihydrate vs 10 mg/kg Losartan potassium or Valsartan): superior antihypertensive effect; Antihypertensive degree with consecutive 4-week administration of drugs, as compared to blood pressure prior to administration (Mean) ([1]; potassium trihydrate): −35 mmHg |
| CCCCc1nc(Cl)c(CO)n1Cc1ccc(-c2ccccc2-c2nn[nH]n2)cc1 [Losartan] | – | Change in diastolic blood pressure (DBP) in the sitting position relative to baseline [2]: −8.56±7.72 mmHg |
| CCOC(=O)C1=C(COCCN)NC(C)=C(C(=O)OC)C1c1ccccc1Cl (single isomer, unassigned) [Comparative Example 5, Amlodipine besylate] | −13 | – |
| CCCCc1nc(C)c(CC(=S)N(C)C)c(=O)n1Cc1ccc(-c2ccccc2-c2nnn[nH]2)cc1 [Comparative Example 2, Fimasartan potassium trihydrate] | – | Antihypertensive degree with consecutive 4-week administration of drugs, as compared to blood pressure prior to administration (Mean) ([1]; potassium trihydrate): −50 mmHg |
| CCOC(=O)C1=C(COCCN)NC(C)=C(C(=O)OC)C1c1ccccc1Cl (single isomer, unassigned) [Comparative Example 6, Amlodipine besylate] | −20 | – |
| CCCCc1nc(Cl)c(CO)n1Cc1ccc(-c2ccccc2-c2nn[nH]n2)cc1 [Comparative Example 3, Losartan potassium salt] | −20 | – |
| CCCCC(=O)N(Cc1ccc(-c2ccccc2-c2nnn[nH]2)cc1)[C@H](C(=O)O)C(C)C [Comparative Example 4, Valsartan] | −32 | – |
